Values after ≈ are worked out from the molar mass of the structure shown. Read-outs that look alike come from different tables or passages of the source.

One data set deals with HIV-1 (IIIB). The data set can be described thus: microbe, parasite or virus in culture. The data set is classed as cell-based.
The nature of the next data set: in vitro. Conditions: human; for CC50 at 5 days: uninfected MT-4 cells.
The nature of another data set: physchem. Conditions: 23 °C, thermodynamic from solid; for solubility thermodynamic at 24 h: FaSSIF; for solubility thermodynamic: fassif.
Where [1] appears, read: Human immunodeficiency virus 1, MT4, 120 h, HIV-1 (IIIB) replication in MT-4 cells, 5 days incubation, Cell Titer Glo, read-out: MT4 EC50.
The mark [2] stands for this setting: Human immunodeficiency virus 1, IIIB, MT4, 120 h, read-out: MT4 EC50 (nM).

As usually defined, the EC50 is the concentration at which the effect is half-maximal. As usually defined, the solubility (thermodynamic) is the concentration in solution at equilibrium with solid. Turning to `CC1=NO[C@@]2(CC[C@H](C)N3C[C@H]2n2cc(C(=O)NCc4ccc(F)cc4F)c(=O)c(OCOC(=O)[C@H]4[C@@H](COP(=O)(O)O)[C@@H]4C(=O)O)c2C3=O)C1` [Compound 79, (1S,2S,3S)-2-(((((3′S,5S,7′R)-10′-((2,4-difluorobenzyl)carbamoyl)-3,3′-dimethyl-1′,11′-dioxo-1′,4′,5′,11′-tetrahydro-3′H,4H,7′H-spiro[isoxazole-5,6′-[2,7]methanopyrido[1,2-a][1,4]diazonin]-12′-yl)oxy)methoxy)carbonyl)-3-((phosphonooxy)methyl)cyclopropane-1-carboxylic acid], the EC50 in the data set on HIV-1 (IIIB) (setting [1]) turned out to be 2.23 nM. For the same compound, the CC50 at 5 days in “in vitro” is 12.5 µM. Also, in the data set “physchem”, the thermodynamic solubility at 24 h turned out to be 4.51 mg/mL (≈ 6.11 mM).
For the compound `CC1=NO[C@@]2(CC[C@H](C)N3C[C@H]2n2cc(C(=O)NCc4ccc(F)cc4F)c(=O)c(OCc4ccc(OP(=O)(O)O)cc4)c2C3=O)C1` [Compound 41, 4-((((3′S,5S,7′R)-10′-((2,4-difluorobenzyl)carbamoyl)-3,3′-dimethyl-1′,11′-dioxo-1′,4′,5′,11′-tetrahydro-3′H,4H,7′H-spiro[isoxazole-5,6′-[2,7]methanopyrido[1,2-a][1,4]diazonin]-12′-yl)oxy)methyl)phenyl dihydrogen phosphate], the EC50 with HIV-1 (IIIB) (setting [2]) was determined as 0.727 nM. In addition, the CC50 in “in vitro” was 12 µM. Besides, in the data set “physchem”, the solubility (thermodynamic) turned out to be 5.08 mg/mL.
In the case of `CC1=NO[C@@]2(CC[C@H](C)N3C[C@H]2n2cc(C(=O)NCc4ccc(F)cc4F)c(=O)c(OCOC(=O)O[C@H]4CCCC[C@@H]4OP(=O)(O)O)c2C3=O)C1` [Compound 44, (((3′S,5S,7′R)-10′-((2,4-difluorobenzyl)carbamoyl)-3,3′-dimethyl-1′,11′-dioxo-1′,4′,5′,11′-tetrahydro-3′H,4H,7′H-spiro[isoxazole-5,6′-[2,7]methanopyrido[1,2-a][1,4]diazonin]-12′-yl)oxy)methyl ((1S,2S)-2-(phosphonooxy)cyclohexyl) carbonate], the EC50 in the data set on HIV-1 (IIIB) (setting [1]) was determined as 1.8 nM. For the same compound, the CC50 at 5 days in “in vitro” is 13.5 µM. The solubility (thermodynamic) at 24 h in the data set “physchem” came to 4.44 mg/mL (≈ 6.01 mM).
Regarding `CC1=NO[C@@]2(CC[C@H](C)N3C[C@H]2n2cc(C(=O)NCc4ccc(F)cc4F)c(=O)c(OCOC(=O)OCCC(C)(C)c4c(CC(=O)O)cc(C)cc4OP(=O)(O)O)c2C3=O)C1` [Compound 23, 2-(2-(4-((((((3′S,5S,7′R)-10′-((2,4-difluorobenzyl)carbamoyl)-3,3′-dimethyl-1′,11′-dioxo-1′,4′,5′,11′-tetrahydro-3′H,4H,7′H-spiro[isoxazole-5,6′-[2,7]methanopyrido[1,2-a][1,4]diazonin]-12′-yl)oxy)methoxy)carbonyl)oxy)-2-methylbutan-2-yl)-5-methyl-3-(phosphonooxy)phenyl)acetic acid], the EC50 with HIV-1 (IIIB) (setting [2]) was 2.11 nM. The compound further came in with a CC50 in the data set “in vitro” of 14.6 µM. Further, in “physchem”, the thermodynamic solubility came out at 4.75 mg/mL (≈ 5.43 mM).
As to `CC1=NO[C@@]2(CC[C@H](C)N3C[C@H]2n2cc(C(=O)NCc4ccc(F)cc4F)c(=O)c(OCOC(=O)OCc4ccc(OP(=O)(O)O)cc4)c2C3=O)C1` [Compound 19, (((3′S,5S,7′R)-10′-((2,4-difluorobenzyl)carbamoyl)-3,3′-dimethyl-1′,11′-dioxo-1′,4′,5′,11′-tetrahydro-3′H,4H,7′H-spiro[isoxazole-5,6′-[2,7]methanopyrido[1,2-a][1,4]diazonin]-12′-yl)oxy)methyl (4-(phosphonooxy)benzyl) carbonate], in the data set with HIV-1 (IIIB) (setting [2]), the EC50 turned out to be 0.71 nM. Also, the CC50 in “in vitro” was 10.9 µM. The compound also showed a solubility (thermodynamic) in “physchem” of 0.39 mg/mL (≈ 0.522 mM).
As for `CC1=NO[C@@]2(CC[C@H](C)N3C[C@H]2n2cc(C(=O)NCc4ccc(F)cc4F)c(=O)c(OCOC(=O)N4CCC[C@H]4COP(=O)(O)O)c2C3=O)C1` [Compound 66, (((3′S,5S,7′R)-10′-((2,4-difluorobenzyl)carbamoyl)-3,3′-dimethyl-1′,11′-dioxo-1′,4′,5′,11′-tetrahydro-3′H,4H,7′H-spiro[isoxazole-5,6′-[2,7]methanopyrido[1,2-a][1,4]diazonin]-12′-yl)oxy)methyl (2S)-2-((phosphonooxy)methyl)pyrrolidine-1-carboxylate], the EC50 in the data set with HIV-1 (IIIB) (setting [1]) amounted to 63.8 nM. The compound also displayed a CC50 at 5 days in the data set “in vitro” of at least 50 µM. This compound also gave a solubility (thermodynamic) at 24 h in “physchem” of 4.83 mg/mL (≈ 6.67 mM).
`CCCCCCCCCCCCCC(=O)Oc1ccc(CC(=O)Oc2c3n(cc(C(=O)NCc4ccc(F)cc4F)c2=O)[C@@H]2CN(C3=O)[C@@H](C)CC[C@]23CC(C)=NO3)cc1` [Compound 96, [4-[2-[(1R,10S,13S)-4-[(2,4-difluorophenyl)methylcarbamoyl]-3′,10-dimethyl-5,8-dioxo-spiro[2,9-diazatricyclo[7.4.1.02,7]tetradeca-3,6-diene-13,5′-4H-isoxazole]-6-yl]oxy-2-oxo-ethyl]phenyl] tetradecanoate]: the EC50 in the data set with HIV-1 (IIIB) (setting [1]) was 2.26 nM. This compound also registered a CC50 at 5 days in “in vitro” of at least 50 µM. Further, in “physchem”, the solubility (thermodynamic) at 24 h worked out at 0.0135 mg/mL (≈ 0.0162 mM).
On to `CC1=NO[C@@]2(CC[C@H](C)N3C[C@H]2n2cc(C(=O)NCc4ccc(F)cc4F)c(=O)c(OCOC(=O)OCC4(COP(=O)(O)O)COC4)c2C3=O)C1` [Compound 56, (((3′S,5S,7′R)-10′-((2,4-difluorobenzyl)carbamoyl)-3,3′-dimethyl-1′,11′-dioxo-1′,4′,5′,11′-tetrahydro-3′H,4H,7′H-spiro[isoxazole-5,6′-[2,7]methanopyrido[1,2-a][1,4]diazonin]-12′-yl)oxy)methyl ((3-((phosphonooxy)methyl)oxetan-3-yl)methyl) carbonate], for which the EC50 with HIV-1 (IIIB) (setting [1]) is 2.4 nM. The compound further had a CC50 at 5 days in the data set “in vitro” of 12.8 µM. In addition, in “physchem”, the thermodynamic solubility at 24 h is 3.56 mg/mL (≈ 4.81 mM).
For the compound `CC1=NO[C@@]2(CC[C@H](C)N3C[C@H]2n2cc(C(=O)NCc4ccc(F)cc4F)c(=O)c(OC(=O)N(C)c4ncc(C(=O)O)cc4CN(CC(=O)O)C(=O)OCOP(=O)(O)O)c2C3=O)C1` [Compound 8, 5-(((carboxymethyl)(((phosphonooxy)methoxy)carbonyl)amino)methyl)-6-(((((3′S,5S,7′R)-10′-((2,4-difluorobenzyl)carbamoyl)-3,3′-dimethyl-1′,11′-dioxo-1′,4′,5′,11′-tetrahydro-3′H,4H,7′H-spiro[isoxazole-5,6′-[2,7]methanopyrido[1,2-a][1,4]diazonin]-12′-yl)oxy)carbonyl)(methyl)amino)nicotinic acid], the EC50 with HIV-1 (IIIB) (setting [2]) is 0.982 nM. In “in vitro”, this compound yielded a CC50 of 10.4 µM. Also, in “physchem”, the solubility (thermodynamic) amounted to 4.8 mg/mL (≈ 5.3 mM).
As for `CC1=NO[C@@]2(CC[C@H](C)N3C[C@H]2n2cc(C(=O)NCc4ccc(F)cc4F)c(=O)c(OCOC(=O)N(C)Cc4cc(C(=O)O)ccc4OP(=O)(O)O)c2C3=O)C1` [Compound 76, 3-(((((((3′S,5S,7′R)-10′-((2,4-difluorobenzyl)carbamoyl)-3,3′-dimethyl-1′,11′-dioxo-1′,4′,5′,11′-tetrahydro-3′H,4H,7′H-spiro[isoxazole-5,6′-[2,7]methanopyrido[1,2-a][1,4]diazonin]-12′-yl)oxy)methoxy)carbonyl)(methyl)amino)methyl)-4-(phosphonooxy)benzoic acid], the EC50 in the data set on HIV-1 (IIIB) (setting [2]) turned out to be 4.41 nM. In the data set “in vitro”, this compound yielded a CC50 of 12.9 µM. The compound further yielded a thermodynamic solubility in the data set “physchem” of 4.06 mg/mL (≈ 5.05 mM).

For the origin of these results see patent US20250127801A1, “BRIDGED TRICYCLIC CARBAMOYLPYRIDONE COMPOUNDS AND USES THEREOF” (priority 2023, published 2025).
